Assays:
[1] = Inhibition of human alpha thrombin by surface plasmon resonance assay
[2] = Inhibition of human alpha thrombin by chromogenic substrate enzyme assay

Row | SMILES | Kd [1] [µM] | IC50 [2] [µM]
1 | O=C(NCc1cccs1)[C@@H]1CCCN1C(=O)Cc1ccc2c(c1)OCO2 | 250 | > 400
2 | CNC(=O)[C@@H]1CCCN1C(=O)CC1CCCCC1 | > 1000 | > 400
3 | COCCNC(=O)[C@@H]1CCCN1C(=O)CCc1ccc(Cl)cc1 | 620 | > 400
4 | CCCNC(=O)[C@@H]1CCCN1C(=O)[C@H](N)Cc1ccc(Cl)cc1 | 45 | 210
5 | CCCNC(=O)[C@@H]1CCCN1C(=O)[C@H](N)C(c1ccccc1)c1ccccc1 | – | 18
6 | COCCNC(=O)[C@@H]1CCCN1C(=O)[C@H](N)C(c1ccccc1)c1ccccc1 | 6.8 | 89
7 | CCCNC(=O)[C@@H]1CCCN1C(=O)CCc1ccc(Cl)cc1 | > 1000 | > 400
8 | CC(C)CNC(=O)[C@@H]1CCCN1C(=O)[C@H](N)C1CCCCC1 | 49 | 230
9 | N[C@@H](C(=O)N1CCC[C@H]1C(=O)NCC1CCCCC1)C1CCCCC1 | 9 | 20
10 | CNC(=O)[C@@H]1CCCN1C(=O)CC(c1ccccc1)c1ccccc1 | > 1000 | > 400
11 | COCCNC(=O)[C@@H]1CCCN1C(=O)CC1CCCCC1 | > 1000 | > 400
12 | CNC(=O)[C@@H]1CCCN1C(=O)CC1(O)c2ccccc2-c2ccccc21 | > 1000 | > 400
13 | COCCNC(=O)[C@@H]1CCCN1C(=O)CC1(O)c2ccccc2-c2ccccc21 | 750 | > 400
14 | CNC(=O)[C@@H]1CCCN1C(=O)Cc1ccc2c(c1)OCO2 | > 1000 | > 400
15 | COCCNC(=O)[C@@H]1CCCN1C(=O)[C@H](N)Cc1ccc(Cl)cc1 | 140 | > 400
16 | N[C@H](Cc1ccc(Cl)cc1)C(=O)N1CCC[C@H]1C(=O)NCc1cccs1 | 2.2 | 13
17 | CNC(=O)[C@@H]1CCCN1C(=O)[C@H](NS(=O)(=O)Cc1ccccc1)C1CCCCC1 | 35 | 170
18 | COCCNC(=O)[C@@H]1CCCN1C(=O)[C@H](O)C1CCCCC1 | > 1000 | > 400

Row | SMILES | Kd [1] [µM] | IC50 [2] [µM]
19 | CCCNC(=O)[C@@H]1CCCN1C(=O)CC(c1ccccc1)c1ccccc1 | 270 | > 400
20 | O=C(NCc1cccs1)[C@@H]1CCCN1C(=O)CC(c1ccccc1)c1ccccc1 | 34 | 120
21 | N[C@@H](C(=O)N1CCC[C@H]1C(=O)NCc1cccs1)C(c1ccccc1)c1ccccc1 | 0.27 | 1.6
22 | CNC(=O)[C@@H]1CCCN1C(=O)[C@H](N)C1CCCCC1 | 790 | > 400
23 | O=C(NCc1cccs1)[C@@H]1CCCN1C(=O)CCc1ccc(Cl)cc1 | 700 | > 400
24 | CCCNC(=O)[C@@H]1CCCN1C(=O)Cc1ccc2c(c1)OCO2 | > 1000 | > 400
25 | O=C(NCc1cccs1)[C@@H]1CCCN1C(=O)CC1(O)c2ccccc2-c2ccccc21 | 23 | 49
26 | N[C@@H](C(=O)N1CCC[C@H]1C(=O)NCc1cccs1)C1CCCCC1 | 1.1 | 4.2
27 | CCCNC(=O)[C@@H]1CCCN1C(=O)[C@H](N)C1CCCCC1 | 27 | 120
28 | COCCNC(=O)[C@@H]1CCCN1C(=O)[C@H](N)C1CCCCC1 | 110 | > 400
29 | CNC(=O)[C@@H]1CCCN1C(=O)[C@H](N)Cc1ccc(Cl)cc1 | 550 | > 400
30 | O=C(NCc1cccs1)[C@@H]1CCCN1C(=O)CC1CCCCC1 | 1000 | > 400
31 | CCCNC(=O)[C@@H]1CCCN1C(=O)CC1CCCCC1 | > 1000 | > 400
32 | CNC(=O)[C@@H]1CCCN1C(=O)[C@H](N)C(c1ccccc1)c1ccccc1 | 38 | 230
33 | CCCNC(=O)[C@@H]1CCCN1C(=O)CC1(O)c2ccccc2-c2ccccc21 | 99 | 380
34 | COCCNC(=O)[C@@H]1CCCN1C(=O)Cc1ccc2c(c1)OCO2 | > 1000 | > 400
35 | CNC(=O)[C@@H]1CCCN1C(=O)CCc1ccc(Cl)cc1 | > 1000 | > 400
36 | COCCNC(=O)[C@@H]1CCCN1C(=O)CC(c1ccccc1)c1ccccc1 | > 1000 | > 400
